Test results reported in US20160206726A1, “IMMUNOTHERAPY” (priority 2013, published 2016).

Assays:
healthy B cells = assay: Healthy B cells pulsed with cyclic or linear peptide with or without protease inhibitor cocktail; IFN-γ assayed for T cell recognition; format: cell-based; details: 10 ug peptide
Procedure: LCLs (tumour B cells) or healthy B cells were incubated with or without a protease inhibitor cocktail for 2 hrs at 37° C. […] The amino acid sequence of the cyclic peptide was […] (SEQ ID No: 278). The protease cleavage sequence “FR” is recognised by Cathepsin B and the T cell epitope […] is restricted to HLA-A*0201. The cyclic peptide was obtained from JPT Peptide Technologies. These cells were incubated with peptide-specific T cells overnight and IFN-γ assayed for T cell recognition of the processed peptide.

[1] = tested on: SW620 cells (colorectal cell line); assay: Plasma stability of cyclic peptide in colorectal cancer model (IFN-γ T cell recognition after plasma treatment); format: in vitro ADME, human; details: no target cells
Procedure: (§1) These cells were incubated with peptide-specific T cells overnight and IFN-γ assayed for T cell recognition of the processed peptide.

LCL target cells = assay: Comparison of the plasma stability of cyclic peptide and APEC in LCL model (IFN-γ T cell recognition after plasma treatment); format: in vitro ADME, human; details: no target cells
Procedure: as §1

[2] = tested on: SW620 cells (colorectal cell line); assay: SW620 colorectal cell line pulsed with cyclic or linear peptide with or without protease inhibitor cocktail; IFN-γ assayed for T cell recognition; format: cell-based; details: 10 ug peptide
Procedure: SW620 cells (colorectal cell line) incubated with or without a protease inhibitor cocktail for 2 hrs at 37° C. […] These cells were incubated with peptide-specific T cells overnight and IFN-γ assayed for T cell recognition of the processed peptide.
As a control for this, T cells alone were treated with the cyclic peptide. T cells should not process the cyclic form of the peptide but would be able to present the linear form and therefore the level of IFN-γ produced in this control would account for the amount of linear peptide present in the vial of cyclic peptide.

LCLs (tumour B cells) [3] = assay: LCL pulsed with cyclic or linear peptide with or without protease inhibitor cocktail; IFN-γ assayed for T cell recognition; format: cell-based; details: 10 ug peptide
Procedure: LCLs (tumour B cells) were incubated with or without a protease inhibitor cocktail for 2 hrs at 37° C. […] (SEQ ID No: 278). The protease cleavage sequence “FR” is recognised by Cathepsin B and the T cell epitope […] is restricted to HLA-A*0201. […] These cells were incubated with peptide-specific T cells overnight and IFN-γ assayed for T cell recognition of the processed peptide.

LCLs (tumour B cells) [4] = assay: Plasma stability of cyclic peptide in LCL model (IFN-γ T cell recognition after plasma treatment); format: in vitro ADME, human
Procedure: LCLs (tumour B cells) were incubated with or without a protease inhibitor cocktail (PIC) for 2 hrs at 37° C. […] These cells were incubated with peptide-specific T cells overnight and IFN-γ assayed for T cell recognition of the processed peptide.

[5] = protease inhibitor cocktail 2 hrs at 37° C

## FRGGANLVPMVATVAA [cyclic peptide]
Healthy B cells
  amount of IFN-γ with healthy B cells compared with LCL: significantly decreased amount of IFN-γ compared to the LCL treated with the cyclic peptide
Healthy B cells; [5]
  T cell recognition (IFN-γ) of pulsed healthy B cells, with versus without protease inhibitors: little difference in the response
[1]
  response of T cells alone labelled with the peptide, without and with serum treatment: very small response to the peptide which then disappears upon treatment of the peptide with serum
LCL target cells
  response of T cells alone labelled with the peptide, without and with serum treatment: very small response to the peptide which then disappears upon treatment of the peptide with serum
[2]
  response with the protease inhibitors compared with T cells cultured with the cyclic peptide alone: very similar to the level seen when T cells were cultured with the cyclic peptide alone
[2]; [5]
  T cell recognition (IFN-γ) of pulsed target cells, with versus without protease inhibitors: much larger response to IFN-γ when cultured in the absence of the protease inhibitors
  decrease in the T cell recognition in the presence of the protease inhibitors: ~65%
LCLs (tumour B cells) [3]
  response with the protease inhibitors compared with T cells cultured with the cyclic peptide alone: very similar to the level seen when T cells were cultured with the cyclic peptide alone
LCLs (tumour B cells) [3]; [5]
  decrease in the T cell recognition in the presence of the protease inhibitors: ~75%
LCLs (tumour B cells) [3]; protease inhibitor cocktail 2 hrs at 37° C, peptide-specific T cells overnight
  T cell recognition (IFN-γ) of pulsed target cells, with versus without protease inhibitors: much larger response to IFN-γ when cultured in the absence of the protease inhibitors
LCLs (tumour B cells) [4]; LCLs pre-incubated with PIC, peptide treated 4 hrs with human plasma
  effect of protease inhibitor cocktail on response to plasma-treated peptide: there is a decrease when target cells were pre-incubated with the protease inhibitor cocktail
LCLs (tumour B cells) [4]; T cells alone, no target cells
  response of T cells alone labelled with the peptide, without and with serum treatment: very small response to the peptide which then disappears upon treatment of the peptide with serum
